Literature values, collected in US20050059087A1, “Antibodies directed to the deletion mutants of epidermal growth factor receptor and uses thereof” (priority 2003, published 2005).

Tests used:
L1210 cells = conditions: treatment of L1210 cells in vivo; cited from earlier work
[1] = test system: P388, L1210, and LY5178 murine leukemic cell suspensions; conditions: in vitro; cited from earlier work
[2] = test system: human acute lymphoblastic leukemia line CEM; conditions: in vitro; cited from earlier work
[3] = test system: P388 lymphocytic leukemia system; conditions: in vivo; cited from earlier work
[4] = vs methotrexate, daunorubicin, vincristine; cited from earlier work

COc1cc2cc(c1Cl)N(C)C(=O)C[C@H](OC(=O)[C@H](C)N(C)C(C)=O)[C@]1(C)O[C@H]1[C@H](C)[C@@H]1C[C@@](O)(NC(=O)O1)[C@H](OC)/C=C/C=C(\C)C2 [Maytansine]
Cells accumulating in mitosis (L1210 cells): 67% | Inhibitory doses [1]: 10^−3 to 10^−1 µg/µl | Inhibitory concentration [2]: ≥ 10^−7 mg/ml | Dosage range over which tumor growth was inhibited [3]: 50- to 100 fold | Cytotoxicity relative to conventional cancer chemotherapeutic agents [4]: 100 to 1000 fold
